#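 Interpolation was linear, between the two tested concentrations surrounding the appropriate level; five concentrations were tested over 48 hours in 96-well plates. Abbreviation: GI50, concentration required for 50% inhibition of growth.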 Activity calls are given as the source filed them. Cut-off read from the data, not from the text of the source: active = GI50 up to about 1.1 µM and inactive = higher.
# Columns and labels:
# Assay in all cases: NCI-60 cell line screen, 48 h
# [1] = system: SN12C
# [2] = system: HCT-116
# [3] = system: T47D
# [4] = system: OVCAR-4
# [5] = system: CAKI-1
# [6] = system: HOP-62
# [7] = system: NCI-H23
# [8] = system: K562
# [9] = system: ACHN
# [10] = system: UACC-257
# [11] = system: SK-MEL-28
# [12] = system: RPMI-8226
# [13] = system: COLO 205
# [14] = system: IGROV-1
# [15] = system: HCC 2998
# [16] = system: SK-OV-3
# [17] = system: TK-10
# [18] = system: CCRF-CEM
# [19] = system: LOX IMVI
# [20] = system: NCI/ADR-RES
# [21] = system: NCI-H226
# [22] = system: SF-539
# [23] = system: EKVX
# [24] = system: SK-MEL-2
# [25] = system: MCF7
# [26] = system: UACC-62
# [27] = system: MDA-N
# [28] = system: KM12
# [29] = system: HCT-15
# [30] = system: OVCAR-8
# [31] = system: NCI-H522
# [32] = system: MOLT-4
# [33] = system: SW-620
# [34] = system: U-251
# [35] = system: OVCAR-5
# [36] = system: HL-60
# [37] = system: MDA-MB-231
# [38] = system: OVCAR-3
# [39] = system: SF-295
# [40] = system: A498
# [41] = system: 786-0
# [42] = system: MDA-MB-435
# [43] = system: UO-31
# [44] = system: A549
# [45] = system: M14
# [46] = system: HT-29
# [47] = system: SNB-75
# [48] = system: BT-549
# [49] = system: SR
# [50] = system: SK-MEL-5
# [51] = system: SNB-19
# [52] = system: PC-3
# [53] = system: RXF 393
# [54] = system: HOP-92
# [55] = system: SF-268
# [56] = system: DU-145
# [57] = system: NCI-H460
# [58] = system: Hs-578T
# [59] = system: Malme-3M
structure (smiles),measurement,setting,value
O=c1c2ccccc2[nH]c2c(Cl)cc(Cl)c(N3CCCCC3)c12,GI50,[1],22.1 µM (inactive)
same,GI50,[2],46.3 µM (inactive)
same,GI50,[3],50.6 µM (inactive)
same,GI50,[4],71.6 µM (inactive)
same,GI50,[5],30.5 µM (inactive)
same,GI50,[6],34 µM (inactive)
same,GI50,[7],24.1 µM (inactive)
same,GI50,[8],> 10 µM (inactive)
same,GI50,[9],23 µM (inactive)
same,GI50,[10],39.1 µM (inactive)
same,GI50,[11],58.5 µM (inactive)
same,GI50,[12],29.9 µM (inactive)
same,GI50,[13],37.8 µM (inactive)
same,GI50,[14],18.6 µM (inactive)
same,GI50,[15],31.9 µM (inactive)
same,GI50,[16],62.4 µM (inactive)
same,GI50,[17],39.7 µM (inactive)
same,GI50,[18],> 10 µM (inactive)
same,GI50,[19],41.6 µM (inactive)
same,GI50,[20],25.6 µM (inactive)
same,GI50,[21],23.7 µM (inactive)
same,GI50,[22],21.9 µM (inactive)
same,GI50,[23],28.9 µM (inactive)
same,GI50,[24],21.7 µM (inactive)
same,GI50,[25],20.7 µM (inactive)
same,GI50,[26],> 10 µM (inactive)
same,GI50,[27],24.3 µM (inactive)
same,GI50,[28],19.1 µM (inactive)
same,GI50,[29],44.8 µM
same,GI50,[30],40 µM (inactive)
same,GI50,[31],22.1 µM (inactive)
same,GI50,[32],26.4 µM (inactive)
same,GI50,[33],35.4 µM (inactive)
same,GI50,[34],24.4 µM (inactive)
same,GI50,[35],34.5 µM (inactive)
same,GI50,[36],37.5 µM (inactive)
same,GI50,[37],33.6 µM (inactive)
same,GI50,[38],31.1 µM (inactive)
same,GI50,[39],32.4 µM (inactive)
same,GI50,[40],28.3 µM (inactive)
same,GI50,[41],> 10 µM (inactive)
same,GI50,[42],22.8 µM (inactive)
same,GI50,[43],20 µM (inactive)
same,GI50,[44],33.2 µM (inactive)
same,GI50,[45],27.3 µM (inactive)
same,GI50,[46],16 µM (inactive)
same,GI50,[47],30.1 µM (inactive)
same,GI50,[48],43.5 µM (inactive)
same,GI50,[49],36.5 µM (inactive)
same,GI50,[50],34.3 µM (inactive)
same,GI50,[51],34.6 µM (inactive)
same,GI50,[52],35.5 µM (inactive)
CCOC(=O)c1cn(-c2ccccc2)c(=S)n2c1nc1ccccc12,GI50,[1],> 70.1 µM (inactive)
same,GI50,[2],42.6 µM (inactive)
same,GI50,[3],80 µM (inactive)
same,GI50,[53],54.8 µM (inactive)
same,GI50,[4],37.4 µM (inactive)
same,GI50,[5],49 µM (inactive)
same,GI50,[6],53.2 µM (inactive)
same,GI50,[7],45.7 µM (inactive)
same,GI50,[8],18.3 µM (inactive)
same,GI50,[9],56.1 µM (inactive)
same,GI50,[10],40 µM (inactive)
same,GI50,[11],28.2 µM (inactive)
same,GI50,[12],18.1 µM (inactive)
same,GI50,[13],30.3 µM (inactive)
same,GI50,[14],42.5 µM (inactive)
same,GI50,[15],> 52.7 µM (inactive)
same,GI50,[16],> 100 µM (inactive)
same,GI50,[54],13.9 µM (inactive)
same,GI50,[17],96.8 µM (inactive)
same,GI50,[18],5.53 µM (inactive)
same,GI50,[19],> 67.1 µM (inactive)
same,GI50,[20],25.5 µM (inactive)
same,GI50,[21],27.3 µM (inactive)
same,GI50,[22],32.7 µM (inactive)
same,GI50,[23],32.8 µM (inactive)
same,GI50,[55],21.7 µM (inactive)
same,GI50,[24],32.9 µM (inactive)
same,GI50,[25],35.5 µM (inactive)
same,GI50,[26],53.8 µM (inactive)
same,GI50,[56],63.2 µM (inactive)
same,GI50,[27],41.1 µM (inactive)
same,GI50,[28],33.7 µM (inactive)
same,GI50,[29],41.5 µM
same,GI50,[30],24.4 µM (inactive)
same,GI50,[32],4.65 µM (inactive)
same,GI50,[33],52.6 µM (inactive)
same,GI50,[34],58.5 µM (inactive)
same,GI50,[35],> 100 µM (inactive)
same,GI50,[57],61.4 µM (inactive)
same,GI50,[37],> 63.7 µM (inactive)
same,GI50,[38],52.2 µM (inactive)
same,GI50,[39],71.8 µM (inactive)
same,GI50,[40],23.9 µM (inactive)
same,GI50,[41],43.4 µM (inactive)
same,GI50,[42],32.5 µM (inactive)
same,GI50,[43],7.67 µM (inactive)
same,GI50,[44],42.9 µM (inactive)
same,GI50,[45],38.6 µM (inactive)
same,GI50,[46],30.5 µM (inactive)
same,GI50,[47],> 71.6 µM (inactive)
same,GI50,[48],41.8 µM (inactive)
same,GI50,[49],13.6 µM (inactive)
same,GI50,[50],23.1 µM (inactive)
same,GI50,[51],> 66.2 µM (inactive)
same,GI50,[52],24.4 µM (inactive)
COC(=O)[C@@H]1C[C@@]2(C3C=CN(C(=O)C(F)(F)F)C=C3)c3ccccc3N(C(=O)C(F)(F)F)[C@H]2N1C(=O)OC,GI50,[1],56.9 µM (inactive)
same,GI50,[2],> 100 µM (inactive)
same,GI50,[3],46.7 µM (inactive)
same,GI50,[53],24.5 µM (inactive)
same,GI50,[4],93.3 µM (inactive)
same,GI50,[5],65.3 µM (inactive)
same,GI50,[6],49.5 µM (inactive)
same,GI50,[7],> 100 µM (inactive)
same,GI50,[8],47.8 µM (inactive)
same,GI50,[9],> 100 µM (inactive)
same,GI50,[10],> 100 µM (inactive)
same,GI50,[11],39.1 µM (inactive)
same,GI50,[12],42.1 µM (inactive)
same,GI50,[13],> 100 µM (inactive)
same,GI50,[14],> 100 µM (inactive)
same,GI50,[15],57.8 µM (inactive)
same,GI50,[16],> 100 µM (inactive)
same,GI50,[54],34.1 µM (inactive)
same,GI50,[17],16.9 µM (inactive)
same,GI50,[18],31.7 µM (inactive)
same,GI50,[19],44.5 µM (inactive)
same,GI50,[20],> 100 µM (inactive)
same,GI50,[21],> 100 µM (inactive)
same,GI50,[22],> 100 µM (inactive)
same,GI50,[23],> 100 µM (inactive)
same,GI50,[55],43 µM (inactive)
same,GI50,[25],51.8 µM (inactive)
same,GI50,[26],32.1 µM (inactive)
same,GI50,[56],> 100 µM (inactive)
same,GI50,[28],> 100 µM (inactive)
same,GI50,[29],88.1 µM
same,GI50,[30],> 100 µM (inactive)
same,GI50,[31],26.8 µM (inactive)
same,GI50,[32],61.5 µM (inactive)
same,GI50,[33],47.3 µM (inactive)
same,GI50,[34],43 µM (inactive)
same,GI50,[35],> 100 µM (inactive)
same,GI50,[57],> 100 µM (inactive)
same,GI50,[36],30.9 µM (inactive)
same,GI50,[37],> 100 µM (inactive)
same,GI50,[38],90.8 µM (inactive)
same,GI50,[39],> 100 µM (inactive)
same,GI50,[40],> 100 µM (inactive)
same,GI50,[41],54 µM (inactive)
same,GI50,[42],44.8 µM (inactive)
same,GI50,[43],> 100 µM (inactive)
same,GI50,[58],49.7 µM (inactive)
same,GI50,[44],> 100 µM (inactive)
same,GI50,[45],> 100 µM (inactive)
same,GI50,[46],> 10 µM (inactive)
same,GI50,[47],20.1 µM (inactive)
same,GI50,[48],33.3 µM (inactive)
same,GI50,[49],53.8 µM (inactive)
same,GI50,[50],70 µM (inactive)
same,GI50,[51],71.6 µM (inactive)
same,GI50,[52],70.8 µM (inactive)
same,GI50,[59],> 100 µM (inactive)
